“Also recorded” adds a separate entry of the source. Where two headings read alike, the source gives them in different places. Non-standard residues stand in square brackets, D forms with d. Residues, ends and D or L forms follow the SMILES beside them. *: point of attachment. AFC = O=c1cc(C(F)(F)F)c2ccc(N*)cc2o1; Tic = O=C(O)[C@@H]1Cc2ccccc2CN1; AMC = Cc1cc(=O)oc2cc(N*)ccc12; Cbz = O=C(OCc1ccccc1)*; AEEA = NCCOCCOCC(=O)O
Tests used:
DPPIV [1] = target: T1, DPPIV (Homo sapiens, UniProt P27487); experiment: DPPIV inhibition constants (Ki) with Tic-Pro-AFC substrate; type: biochemical; details: for Ki: substrate Tic-Pro-AFC; for Selectivity Ki (DPPIV) / Ki (APCE-FAP): ratio of Ki values
T1 sequence (P27487 whole entry, species assumed): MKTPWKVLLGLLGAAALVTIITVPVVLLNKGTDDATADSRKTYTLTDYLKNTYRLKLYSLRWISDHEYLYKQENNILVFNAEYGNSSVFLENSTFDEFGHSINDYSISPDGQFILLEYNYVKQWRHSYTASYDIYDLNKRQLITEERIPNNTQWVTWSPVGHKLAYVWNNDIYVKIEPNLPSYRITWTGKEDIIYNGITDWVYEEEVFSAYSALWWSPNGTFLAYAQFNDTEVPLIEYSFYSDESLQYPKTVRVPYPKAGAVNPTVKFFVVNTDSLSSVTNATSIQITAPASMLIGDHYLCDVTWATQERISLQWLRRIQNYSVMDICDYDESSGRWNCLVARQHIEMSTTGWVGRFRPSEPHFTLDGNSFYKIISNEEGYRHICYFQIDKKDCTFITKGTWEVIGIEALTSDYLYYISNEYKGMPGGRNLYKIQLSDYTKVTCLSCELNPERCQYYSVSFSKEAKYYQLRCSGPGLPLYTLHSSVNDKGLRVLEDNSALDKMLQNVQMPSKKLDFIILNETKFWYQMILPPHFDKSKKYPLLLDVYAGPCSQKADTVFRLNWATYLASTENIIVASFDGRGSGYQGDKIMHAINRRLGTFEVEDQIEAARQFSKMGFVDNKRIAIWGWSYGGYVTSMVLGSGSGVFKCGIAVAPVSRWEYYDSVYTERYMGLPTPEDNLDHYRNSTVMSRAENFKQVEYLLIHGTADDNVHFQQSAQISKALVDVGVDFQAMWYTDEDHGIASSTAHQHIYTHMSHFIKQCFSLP
Method: (§1) For accurate assessment of kinetic parameters, saturating concentrations of substrate were used. For standard curves, dilutions of AFC (7-amino-4-trifluoromethylcoumarin) were prepared in the same assay buffer and corresponding fluorescence was measured.

APCE/FAP [2] = target: T2, APCE/FAP (Homo sapiens, UniProt Q12884); experiment: APCE/FAP inhibition constants (Ki) with Tic-Pro-AFC substrate; type: biochemical; details: for Ki: substrate Tic-Pro-AFC
T2 construct: absence of an about 26-residue amino terminal peptide constituting the transmembrane and intracytosolic domains; from tissue
T2 sequence (Q12884 24-760 limits assumed): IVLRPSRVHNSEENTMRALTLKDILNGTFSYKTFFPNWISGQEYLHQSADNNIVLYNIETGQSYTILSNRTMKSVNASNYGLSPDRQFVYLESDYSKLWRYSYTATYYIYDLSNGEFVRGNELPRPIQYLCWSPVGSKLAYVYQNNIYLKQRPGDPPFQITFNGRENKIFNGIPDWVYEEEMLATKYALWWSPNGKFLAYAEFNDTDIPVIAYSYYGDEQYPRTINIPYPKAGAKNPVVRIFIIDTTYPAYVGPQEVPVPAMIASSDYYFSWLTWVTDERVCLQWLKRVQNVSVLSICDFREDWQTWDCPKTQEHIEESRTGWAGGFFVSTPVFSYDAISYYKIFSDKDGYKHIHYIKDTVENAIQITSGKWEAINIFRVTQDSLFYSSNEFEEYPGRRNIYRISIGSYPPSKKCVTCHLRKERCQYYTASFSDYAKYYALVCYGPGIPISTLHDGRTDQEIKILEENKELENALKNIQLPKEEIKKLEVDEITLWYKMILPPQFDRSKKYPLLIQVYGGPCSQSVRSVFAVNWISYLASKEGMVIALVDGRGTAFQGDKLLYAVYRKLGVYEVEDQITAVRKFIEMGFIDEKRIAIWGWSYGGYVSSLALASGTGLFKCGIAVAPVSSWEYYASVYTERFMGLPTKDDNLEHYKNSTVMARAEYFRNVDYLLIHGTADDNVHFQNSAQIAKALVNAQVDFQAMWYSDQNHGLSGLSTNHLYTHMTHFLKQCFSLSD
Method: as §1

POP [3] = target: T3, POP (Homo sapiens, UniProt P48147); experiment: POP inhibition constants (Ki) with Tic-Pro-AFC substrate; type: biochemical; details: for Selectivity Ki (POP) / Ki (APCE/FAP): ratio of Ki values; for Ki: substrate Tic-Pro-AFC
T3 sequence (P48147 1-710): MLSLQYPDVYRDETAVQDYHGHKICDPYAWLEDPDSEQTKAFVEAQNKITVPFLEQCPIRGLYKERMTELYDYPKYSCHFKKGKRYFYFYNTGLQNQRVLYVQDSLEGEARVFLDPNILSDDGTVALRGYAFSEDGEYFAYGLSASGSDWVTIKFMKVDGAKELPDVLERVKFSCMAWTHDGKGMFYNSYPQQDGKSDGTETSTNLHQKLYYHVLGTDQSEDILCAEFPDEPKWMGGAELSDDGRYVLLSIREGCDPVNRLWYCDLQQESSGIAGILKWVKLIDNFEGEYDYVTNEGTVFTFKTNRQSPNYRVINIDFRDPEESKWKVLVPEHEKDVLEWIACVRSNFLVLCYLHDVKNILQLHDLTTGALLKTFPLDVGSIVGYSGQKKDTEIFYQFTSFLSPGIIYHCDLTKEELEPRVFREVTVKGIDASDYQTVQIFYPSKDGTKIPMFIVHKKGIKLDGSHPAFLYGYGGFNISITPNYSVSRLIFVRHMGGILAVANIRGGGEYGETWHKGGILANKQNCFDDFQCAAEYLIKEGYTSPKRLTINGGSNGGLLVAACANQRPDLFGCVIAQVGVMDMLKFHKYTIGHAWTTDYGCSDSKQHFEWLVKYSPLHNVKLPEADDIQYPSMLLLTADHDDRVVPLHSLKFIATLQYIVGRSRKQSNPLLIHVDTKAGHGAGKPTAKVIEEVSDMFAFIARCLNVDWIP
Method: as §1

Aqueous solubility = type: physicochemical; details: result in words
Method: The specific POP inhibitor, J94 (acetyl-Lys-Leu-Arg-(L)boroPro (Ki<100 nM)); and the substrate, C95 (acetyl-Arg-AEEA-Gly-Pro-AMC), were designed, synthesized and characterized by us as previously reported. […] The inhibitors (J94 and M83) were dissolved in Hanks Balanced Salt Solution (HBSS; Gibco) at 1 mM and stored at −20° C. The substrate (C95) was dissolved in HBSS at 2.5 mM and stored at 4° C. […] Tic-Pro-AFC, a prolyl-specific fluorescent substrate, was supplied by Vantia (Southampton, England).

DPPIV [4] = target: T1, DPPIV; experiment: Cleavage kinetics of fluorescent substrates by DPPIV; type: biochemical; details: for cleavage of substrate by DPPIV: result in words
Method: (§2) APCE (^˜4 μg), DPPIV (^˜2 μg) or POP (^˜2 μg) was incubated in 25 mM sodium phosphate buffer, pH 7.5, containing 1.0 mM EDTA and 2% methanol in a total volume of 200 μl for 20 min at 22° C. Using Tic-Pro-AFC (10-300 μM for APCE, 5-200 μM for DPPIV, and 40-800 μM for POP), fluorescence was monitored with time at excitation/emission wavelengths of 400/508 nm, using a black-sided 96-well plate in a BIO-TEK FL600 fluorescence plate reader. For accurate assessment of kinetic parameters, saturating concentrations of substrate were used. For standard curves, dilutions of AFC (7-amino-4-trifluoromethylcoumarin) were prepared in the same assay buffer and corresponding fluorescence was measured.
(§3) Characterization of Tic-Pro-AFC as substrate: A new substrate, Tic-Pro-AFC, was used for assessing APCE/FAP, DPPIV and POP, each belonging to the same clade of prolyl-specific serine proteinases and each with activity towards unique substrates. […] Based on Ki, Km and kcat values in Tables 6 and 7, Tic-Pro-AFC was readily cleaved by each enzyme, with kcat/Km for APCE/FAP being slightly higher than POP and slightly lower than DPPIV. […] Thus, Tic-Pro-AFC was chosen as the substrate for comparing the potency and selectivity of the inhibitors towards APCE/FAP, DPPIV, or POP.

APCE/FAP [5] = target: T2, APCE/FAP; experiment: Cleavage kinetics of fluorescent substrates by APCE/FAP; type: biochemical
Method: as §2, §3

[6] = tested on: HCT116 human colon cancer xenografts; experiment: HCT116 human colon cancer xenografts in immunodeficient mice; type: in vivo; details: 28-day treatment period
HMVEC-d = experiment: Tube formation assay of HMVEC-d on Matrigel; type: cell-based, human; details: 50 μM inhibitor
Method: For tube formation assays, Matrigel™ (BD Biosciences, San Jose, Calif.) 80 μl was added to black-sided, clear bottom 96-well plates as above and allowed to gel at 37° C. for 30 minutes. Then 15,000 HMVEC-d in EC media without serum were added and allowed to settle for 1 hour. […] The reader was maintained at 37° C. and fluorescence was measured with time for 18 hours.

POP [7] = target: T3, POP; experiment: Cleavage kinetics of fluorescent substrates by POP; type: biochemical; details: for Km / kcat: substrate cleaved by POP
Method: as §2, §3

[8] = before cyclizing and losing inhibitory activity; cited from earlier work
DPPIV [9] = target: T1, DPPIV; details: result in words; cited from earlier work

Compound: CC(=O)N[C@@H](CCCNC(=N)N)C(=O)NCCOCCOCC(=O)N[C@H](C)C(=O)N1CCC[C@@H]1B(O)O (single isomer, unassigned) [Ac-Arg-peg-D-Ala-D-boroPro]
- Ki (DPPIV [1]): 20500 nM
- Ki (APCE/FAP [2]): 189 nM

Compound: CC(=O)N[C@@H](CCCNC(=N)N)C(=O)NCC(=O)NCC(=O)N1CCC[C@H]1B(O)O [Ac-Arg-Gly-Gly-L-boroPro]
- Selectivity Ki (POP) / Ki (APCE/FAP) (POP [3]): 0.1
- Ki (POP [3]): 1.6 nM

Compound: CC(=O)N[C@@H](CCCNC(=N)N)C(=O)NCCOCCOCC(=O)N[C@H](CC(=O)O)C(=O)N1CCC[C@H]1B(O)O [Ac-Arg-peg-D-Asp-L-boroPro]
- Selectivity Ki (POP) / Ki (APCE/FAP) (POP [3]): 0.02
- Ki (POP [3]): 23.9 nM
- Selectivity Ki (DPPIV) / Ki (APCE-FAP) (DPPIV [1]): 5.2
- Ki (DPPIV [1]): 7130 nM
- Ki (APCE/FAP [2]): 1380 nM

Compound: CC(=O)N[C@@H](CCCNC(=N)N)C(=O)NCCOCCOCC(=O)NCC(=O)N1CCC[C@H]1B(O)O [Ac-Arg-peg-Gly-L-boroPro]
- Selectivity Ki (POP) / Ki (APCE/FAP) (POP [3]): 1.2
- Ki (POP [3]): 2.1 nM
- Ki (DPPIV [1]): 440 nM
- Ki (APCE/FAP [2]): 1.8 nM

Compound: CC(=O)N[C@@H](CCCNC(=N)N)C(=O)NCCOCCOCC(=O)N[C@@H](CO)C(=O)NCC(=O)N1CCC[C@H]1B(O)O [Ac-Arg-peg-Ser-Gly-L-boroPro]
- Selectivity Ki (POP) / Ki (APCE/FAP) (POP [3]): 1.1
- Ki (POP [3]): 2.9 nM
- Ki (DPPIV [1]): 861 nM
- Ki (APCE/FAP [2]): 2.7 nM

Compound: CC(=O)N[C@@H](CCCNC(=N)N)C(=O)NCCOCCOCC(=O)NCC(=O)N1CCC[C@H]1C(=O)Nc1ccc2c(C)cc(=O)oc2c1 [Compound C95, acetyl-Arg-AEEA-Gly-Pro-AMC] (Ac-R[AEEA]GP-{AMC})
- solubility in aqueous buffers (Aqueous solubility): soluble in aqueous buffers
- cleavage of substrate by DPPIV (DPPIV [4]): neither cleaved
- relative rate of cleavage by FAP and POP (APCE/FAP [5]; FAP and POP at equimolar concentrations): equivalent rates; also recorded: cleaved at equal rates by FAP or POP

Compound: CC(=O)N[C@@H](CCCCN)C(=O)N[C@@H](CC(C)C)C(=O)N[C@@H](CCCNC(=N)N)C(=O)N1CCC[C@H]1B(O)O [Compound J94, acetyl-Lys-Leu-Arg-(L)boroPro]
- Ki (POP [3]): < 100 nM
- solubility in aqueous buffers (Aqueous solubility): soluble in aqueous buffers
- diminished cancer growth [6]: ~75%
- inhibition of DPPIV (DPPIV [1]; result in words): nor was it inhibited
- inhibition of FAP (APCE/FAP [2]; result in words): none towards FAP; also recorded: no effect on FAP
- formation of capillary-like tubes (HMVEC-d): inhibited formation of capillary-like tubes; also recorded: abrogated the genesis of capillary-like tubes

Compound: CC(=O)N[C@@H](CCCCN)C(=O)N[C@@H](CC(C)C)C(=O)N[C@@H](CCCNC(=N)N)C(=O)N1CCC[C@H]1C(=O)Nc1ccc2c(C)cc(=O)oc2c1 [Compound L96, acetyl-Lys-Leu-Arg-Pro-AMC] (Ac-KLRP-{AMC})
- Km (POP [7]): 30 ± 3 µM
- kcat (POP [7]): 2.4 ± 0.1 s⁻¹
- cleavage of substrate by DPPIV (DPPIV [4]): Neither DPPIV nor APCE/FAP cleaved
- cleavage of substrate by APCE/FAP (APCE/FAP [5]; result in words): Neither DPPIV nor APCE/FAP cleaved

Compound: Cc1cc(=O)oc2cc(NC(=O)[C@@H]3CCCN3C(=O)CN)ccc12 [GP-AMC] (H-Gly-Pro-{AMC})
- cleavage of substrate by POP (POP [7]; result in words): not cleaved by POP

Compound: N[C@@H](CCC(=O)O)C(=O)N1CCC[C@H]1B(O)O [Glu-boroPro, glutamyl-proline boronic acid]
- plasma half-life [8]: exceptionally short
- inhibition of DPPIV (DPPIV [9]): also inhibits

Compound: O=C(Nc1ccc2c(C(F)(F)F)cc(=O)oc2c1)[C@@H]1CCCN1C(=O)[C@@H]1Cc2ccccc2CN1 [Tic-Pro-AFC] (H-[Tic]-Pro-{AFC})
- Km (POP [7]): 161 ± 12 µM
- kcat (POP [7]): 0.76 ± 0.01 s⁻¹
- Km (DPPIV [4]; substrate cleaved by DPPIV): 33 ± 2 µM
- kcat (DPPIV [4]; substrate cleaved by DPPIV): 1.49 ± 0.12 s⁻¹
- Km (APCE/FAP [5]; substrate cleaved by APCE/FAP): 53 ± 5 µM
- kcat (APCE/FAP [5]; substrate cleaved by APCE/FAP): 1.19 ± 0.11 s⁻¹

Compound: CC(C)[C@H](N)C(=O)N1CCC[C@H]1B(O)O [Val-boroPro]
- inhibition of DPPIV (DPPIV [9]): also inhibit

Compound: Cc1cc(=O)oc2cc(NC(=O)[C@@H]3CCCN3C(=O)CNC(=O)OCc3ccccc3)ccc12 [Z-GP-AMC, benzyloxycarbonyl (Z)-GP-AMC] (Cbz-Gly-Pro-{AMC})
- cleavage of substrate by DPPIV (DPPIV [4]): not cleaved by DPPIV

Compound: Ac-Arg-Gly-Gly-DL-boroPro
- Selectivity Ki (DPPIV) / Ki (APCE-FAP) (DPPIV [1]): 14.9
- Ki (DPPIV [1]): 341 nM
- Ki (APCE/FAP [2]): 22.9 nM

Compound: Ac-Arg-peg-D-Ala-DL(25:75%)-boroPro
- Ki (APCE/FAP [2]): 7.7 nM

Compound: Ac-Arg-peg-D-Ala-DL(50:50%)-boroPro
- Selectivity Ki (DPPIV) / Ki (APCE-FAP) (DPPIV [1]): 1176
- Ki (DPPIV [1]): 11200 nM
- Ki (APCE/FAP [2]): 9.5 nM

Compound: Ac-Arg-peg-D-Ala-DL(75:25%)-boroPro
- Ki (APCE/FAP [2]): 18.3 nM

Compound: Ac-Arg-peg-Gly-DL-boroPro
- Selectivity Ki (DPPIV) / Ki (APCE-FAP) (DPPIV [1]): 371
- Ki (DPPIV [1]): 1150 nM
- Ki (APCE/FAP [2]): 3.1 nM

From patent publication US9688722B2, “Substrates and inhibitors of prolyl oligopeptidase and methods of use” (The Board of Regents of the University of Oklahoma, priority 2012, dated 2017)
